Data set [1] has as its system velvetleaf (Abutilon theophrasti). In words: Preemergence herbicidal activity. The class given is in vivo. Particulars: Abutilon theophrasti, pre-emergence, 480 h, pre-emergent, after 20-22 days, read-out: % Control ABUTH; for pest or weed control at 140 g/ha: 140 g ai/ha. Summed up: (§1)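 Seeds sown in 70:30 loam (pH about 8.1, about 1.5% organic matter) and sand mix, then sprayed preemergence at 187 L/ha with a track sprayer; controls received solvent blank. Pots kept in greenhouse, about 15 h photoperiod, about 23-29° C. day and 22-28° C. night, top-irrigated.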

For data set [2], the system named is redroot pigweed (Amaranthus retroflexus). Put plainly: Preemergence herbicidal activity. The class given is in vivo. Particulars: Amaranthus retroflexus, pre-emergence, 480 h, pre-emergent, after 20-22 days, read-out: % Control AMARE; for pest or weed control at 140 g/ha: 140 g ai/ha. Summed up:
as §1

The subject of data set [3] is lambsquarter (Chenopodium album). In words: Preemergence herbicidal activity. The class given is in vivo. Particulars: Chenopodium album, pre-emergence, 480 h, pre-emergent, after 20-22 days, read-out: % Control CHEAL; for pest or weed control at 140 g/ha: 140 g ai/ha. Summed up:
as §1

The subject of data set [4] is velvetleaf (Abutilon theophrasti). In words: Postemergence herbicidal activity. The class given is in vivo. Particulars: post-emergent, 140 g ai/ha, after 14 days; for pest or weed control at 140 g/ha: Abutilon theophrasti, post-emergence, 336 h, read-out: % Control ABUTH. Summed up:
(§2)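 Plants grown 7-21 days in greenhouse (about 15 h photoperiod, 23-29° C day, 22-28° C night) to first or second true leaf stage. Compounds in acetone/water/isopropanol/DMSO carrier with crop oil concentrate and Triton X-155 sprayed overhead at 187 L/ha; controls received solvent blank. Plants sub-irrigated afterwards; dose responses analysed by probit analysis.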

Data set [5] has as its system redroot pigweed (Amaranthus retroflexus). Put plainly: Postemergence herbicidal activity. The class given is in vivo. Particulars: post-emergent, 140 g ai/ha, after 14 days; for pest or weed control at 140 g/ha: Amaranthus retroflexus, post-emergence, 336 h, read-out: % Control AMARE. In outline: as §2
Data set [6] concerns lambsquarter (Chenopodium album). Put plainly: Postemergence herbicidal activity. The class given is in vivo. Particulars: post-emergent, 140 g ai/ha, after 14 days; for pest or weed control at 140 g/ha: Chenopodium album, post-emergence, 336 h, read-out: % Control CHEAL. In outline: as §2

In turn, `COC(=O)c1nc(-c2ccc(Br)c(OC)c2F)cc(N)c1Cl` [Compound 27, 4-amino-6-(4-bromo-2-fluoro-3-methoxyphenyl)-3-chloro-pyridine-2-carboxylic acid methyl ester] gave a melting point of 164 to 165 °C. Also, in data set [1], the pest or weed control at 140 g/ha is 100%. For the same compound, in data set [2], the pest or weed control at 140 g/ha turned out to be 100%. The pest or weed control at 140 g/ha in data set [3] was found to be 90%. Further, in data set [4], the pest or weed control at 140 g/ha worked out at 100%. Besides, the pest or weed control at 140 g/ha in data set [5] worked out at 90%. For the same compound, in data set [6], the pest or weed control at 140 g/ha was found to be 100%.

On to `COC(=O)c1nc(-c2ccc(Cl)c(OC)c2F)cc(N)c1Cl` [Compound 42, 4-Amino-3-chloro-6-(4-chloro-2-fluoro-3-methoxyphenyl)pyridine-2-carboxylic acid methyl ester], for which the pest or weed control at 140 g/ha in data set [1], in data set [2], in data set [3], in data set [4], in data set [5] and in data set [6] was 100% each time.

Compound `COC(=O)c1nc(-c2ccc(Cl)c(OC)c2Cl)cc(N)c1Cl` [Compound 44, 4-Amino-3-chloro-6-(2,4-dichloro-3-methoxyphenyl)pyridine-2-carboxylic acid methyl ester] gave a melting point of 168 to 170 °C. The pest or weed control at 140 g/ha in data set [1] was found to be 95%. For the same compound, in data set [2], the pest or weed control at 140 g/ha amounted to 30%. Also, the pest or weed control at 140 g/ha in data set [3] amounted to 95%. Also, in data set [4], the pest or weed control at 140 g/ha turned out to be 100%. Moreover, the pest or weed control at 140 g/ha in data set [5] amounted to 100%. In data set [6], the pest or weed control at 140 g/ha worked out at 100%.

Regarding `COC(=O)c1nc(-c2c(F)cc(Cl)c(OC)c2F)cc(N)c1Cl` [Compound 58, 4-Amino-3-chloro-6-(4-chloro-2,6-difluoro-3-methoxyphenyl)pyridine-2-carboxylic acid, methyl ester], the pest or weed control at 140 g/ha in data set [1], in data set [2], in data set [3], in data set [4], in data set [5] and in data set [6] was 100% in each case.

In the case of `COC(=O)c1nc(-c2ccc(F)c(OC)c2F)cc(N)c1Cl` [Compound 70, 4-Amino-3-chloro-6-(2,4-difluoro-3-methoxyphenyl)pyridine-2-carboxylic acid, methyl ester], the pest or weed control at 140 g/ha in data set [1], in data set [2], in data set [3], in data set [4], in data set [5] and in data set [6] was 100% each time.

`COC(=O)c1nc(-c2c(F)cc(Br)c(OC)c2F)cc(N)c1Cl` [Compound 77, 4-Amino-6-(4-bromo-2,6-difluoro-3-methoxyphenyl)-3-chloropyridine-2-carboxylic acid, methyl ester]: the pest or weed control at 140 g/ha in data set [1], in data set [2], in data set [3], in data set [4], in data set [5] and in data set [6] was 100% in each case.

Consider `COc1c(Cl)ccc(-c2cc(N)c(Cl)c(C(=O)O)n2)c1F` [Compound 100, 4-Amino-3-chloro-6-(4-chloro-2-fluoro-3-methoxyphenyl)pyridine-2-carboxylic acid], for which the pest or weed control at 140 g/ha in data set [1], in data set [2], in data set [3], in data set [4], in data set [5] and in data set [6] was 100% each time.

For `COc1c(Cl)ccc(-c2cc(N)c(Cl)c(C(=O)O)n2)c1Cl` [Compound 103, 4-Amino-3-chloro-6-(2,4-dichloro-3-methoxyphenyl)pyridine-2-carboxylic acid], the melting point was 179 to 180 °C (dec.). For the same compound, the pest or weed control at 123 g/ha in data set [1] (123 g ai/ha) came out at 90%. The pest or weed control at 123 g/ha in data set [2] (123 g ai/ha) amounted to 100%. Further, in data set [3] (123 g ai/ha), the pest or weed control at 123 g/ha stood at 100%. Besides, the “% Control ABUTH” value in data set [4] amounted to 95%. Also, in data set [5], the “% Control AMARE” value came to 100%. Besides, the “% Control CHEAL” value in data set [6] is 100%.

As a reminder, the melting point is the temperature, or range, at which the solid turns liquid.

These data come from US20070179060A1, “6-(Poly-substituted aryl)-4-aminopicolinates and their use as herbicides” (priority 2006, published 2007).
